Laboratory results from US11034685B2, “Aminopyridine derivatives as TAM family kinase inhibitors” (SignalChem Lifesciences Corporation, priority 2013, dated 2021).
pIC50: −log10 of the molar value.

Legend:
Format in all cases: biochemical
[1] = molecular target: T1, Recombinant human Tyro3 (455-end) (Homo sapiens, UniProt Q06418); assay: Kinase enzymatic activity assay ([33P]-ATP phosphate transfer), Tyro3; conditions: inhibitory activity on Tyro3; class symbols
T1 construct: GST (N); made in house; host or cells: Sf9 insect cells (baculovirus)
T1 sequence (Q06418 455-890 limits assumed): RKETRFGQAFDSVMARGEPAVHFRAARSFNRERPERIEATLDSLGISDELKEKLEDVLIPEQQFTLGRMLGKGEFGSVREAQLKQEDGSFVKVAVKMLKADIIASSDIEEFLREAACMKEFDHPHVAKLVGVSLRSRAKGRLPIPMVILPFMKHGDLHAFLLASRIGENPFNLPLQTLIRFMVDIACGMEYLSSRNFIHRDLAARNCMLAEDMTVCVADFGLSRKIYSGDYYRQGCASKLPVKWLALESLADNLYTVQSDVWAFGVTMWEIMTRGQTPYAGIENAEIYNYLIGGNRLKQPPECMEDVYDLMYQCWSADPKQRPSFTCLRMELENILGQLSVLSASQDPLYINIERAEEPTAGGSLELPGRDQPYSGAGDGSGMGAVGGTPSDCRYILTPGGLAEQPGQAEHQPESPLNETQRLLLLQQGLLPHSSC
Experimental: (§1) Preparation of Active Recombinant Kinase Proteins:
(§2) Recombinant human Tyro3 (455-end, the gene accession number NM_006293), human Axl (473-end, the gene accession number NM_021913) and human Mer (578-872, the gene accession number NM_006343) were independently expressed by baculovirus in Sf9 insect cells using an N-terminal GST tag. The recombinant proteins were stored at −70° C. in a medium containing 50 mM Tris-HCl, pH 7.5, 150 mM NaCl, 10 mM glutathione, 0.1 mM EDTA, 0.25 mM DTT, 0.1 mM PMSF and 25% glycerol. The recombinant proteins were aliquoted into smaller quantities after centrifugation to avoid repeated handling and multiple freeze/thaw cycles for the most favorable performance.
(§3) Preparation of Assay Reagents:
(§4) Kinase Assay Buffer: This buffer solution consisted of the following components: 25 mM MOPS, pH 7.2, 12.5 mM β-glycerol-phosphate, 25 mM MgCl2, 5 mM EGTA, 2 mM EDTA and DTT 0.25 mM which was added prior to use.
(§5) Kinase Dilution Buffer: Kinase Assay Buffer was diluted at a 1:4 ratio (5× dilution) with distilled water.
(§6) [^33P]-ATP assay cocktail: In a designated radioactive working area, a 250 μM [^33P]-ATP assay cocktail was prepared by the addition of the following components: 150 μL of 10 mM ATP stock solution, 100 μL [^33P]-ATP (1 mci/100 μL), 5.75 mL of kinase assay buffer. This solution was stored in 1 mL aliquots at −20 OC.
(§7) ATP stock solution (10 mM): The ATP stock solution was prepared by dissolving 55 mg of ATP in 10 mL of kinase assay buffer. It was stored in 200 μL aliquots at −20° C.
(§8) Active Kinase Stock Solution: The active recombinant kinase protein (0.1 μg/μL) was diluted with Kinase Dilution Buffer and the activity was assayed using a serial dilution method. The specific activity is expressed in nmoL/min/mg.
(§9) Substrates: poly(4:1 glu:tyr) is the substrate used for each kinase Tyro3, Axl and Mer: The peptide substrate was dissolved in water to give the final concentration of 1 mg/mL.
(§10) Test compound solution: Test compound was dissolved in DMSO to obtain a 10 mM solution. The assay solution was prepared by adding 5 μL of this solution to […] of 10% DMSO/water to obtain the final concentration of 50 μM.
(§11) The enzymatic activity of all three kinases was determined as follows. Using a 96-well plate, the wells were divided into three categories: Blank wells, […] and Test wells. In Test wells, 5 μL of the test compound solution and 5 μL of the substrate solution were added. In Control wells, 5 μL of 10% DMSO/water and 5 μL of the substrate solution were added. In Blank wells, 10 μL of 10% DMSO/water was added. To each well was added 10 μL of Active Kinase Stock Solution to make up the volume in each well to 20 μL. All test samples, controls and blanks were run in duplicate. The reaction was initiated by the addition of 5 μL of [^33P]-ATP assay cocktail, bringing the final volume up to 25 μL in every well. The mixture was incubated at room temperature for 30 minutes. The reaction was terminated by transferring 10 μL of the reaction mixture into a Millipore MultiScreen filter plate (cat. number MSPHN6B50). The filter plate was washed in a 1% phosphoric acid solution with constant gentle shaking for 15 minutes and this step was repeated once. After the plate was dried in air, scintillation fluid was added to each well and the radioactivity in each well in CPM was counted by a Microbeta TriLux. The corrected CPM in each test well was determined by subtracting the average value of Blank well values. Percentage of inhibition of the kinase enzymatic activity by the test compound was determined using the following formula: […]
(§12) The IC50 values were determined in a similar way following a serial dilution of the test compound. The percentage of inhibition at each concentration was calculated following the above formula. The IC50 was estimated from the curve of % Inhibition against Concentration in log unit using Prism 5, version 5.01.

human Axl (473-end) = molecular target: T2, human Axl (473-end) (Homo sapiens, UniProt P30530); assay: Kinase enzymatic activity assay ([33P]-ATP phosphate transfer), Axl; conditions: inhibitory activity on Axl; class symbols
T2 construct: GST (N); made in house; host or cells: Sf9 insect cells (baculovirus)
T2 sequence (P30530 473-894 limits assumed): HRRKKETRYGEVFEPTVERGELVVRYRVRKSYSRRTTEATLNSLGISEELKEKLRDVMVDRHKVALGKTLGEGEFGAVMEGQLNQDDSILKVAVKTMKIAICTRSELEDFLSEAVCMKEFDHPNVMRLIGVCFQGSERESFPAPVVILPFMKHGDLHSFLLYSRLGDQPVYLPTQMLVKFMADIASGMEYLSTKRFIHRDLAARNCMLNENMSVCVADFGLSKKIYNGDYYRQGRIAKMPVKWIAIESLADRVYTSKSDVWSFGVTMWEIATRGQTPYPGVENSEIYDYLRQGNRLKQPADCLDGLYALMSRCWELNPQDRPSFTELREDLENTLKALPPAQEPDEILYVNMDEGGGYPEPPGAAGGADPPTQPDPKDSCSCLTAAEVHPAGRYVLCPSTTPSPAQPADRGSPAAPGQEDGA
Experimental: as §1, §2, §3, §4, §5, §6, §7, §8, §9, §10, §11, §12

human Mer (578-872) = molecular target: T3, human Mer (578-872) (Homo sapiens, UniProt Q12866); assay: Kinase enzymatic activity assay ([33P]-ATP phosphate transfer), Mer; conditions: inhibitory activity on Mer; class symbols
T3 construct: GST (N); made in house; host or cells: Sf9 insect cells (baculovirus)
T3 sequence (Q12866 578-872): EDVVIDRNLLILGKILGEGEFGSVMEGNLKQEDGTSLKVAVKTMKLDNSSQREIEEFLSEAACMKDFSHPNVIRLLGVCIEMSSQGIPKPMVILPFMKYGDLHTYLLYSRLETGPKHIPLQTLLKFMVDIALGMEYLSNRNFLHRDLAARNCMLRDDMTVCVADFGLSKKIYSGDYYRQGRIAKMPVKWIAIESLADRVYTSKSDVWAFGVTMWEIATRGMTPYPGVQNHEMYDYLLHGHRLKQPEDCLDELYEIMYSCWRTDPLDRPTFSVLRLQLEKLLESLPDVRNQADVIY
Experimental: as §1, §2, §3, §4, §5, §6, §7, §8, §9, §10, §11, §12

| pIC50 [1] | pIC50 (human Axl (473-end)) | pIC50 (human Mer (578-872)) | Compound |
| --- | --- | --- | --- |
| > 6.30 | > 6.30 | > 6.30 | CN1CCC(n2cc(-c3cnc(N)c(-c4ncc(-c5cccc(Cl)c5)o4)c3)cn2)CC1 [3-(5-(3-chlorophenyl)oxazol-2-yl)-5-(1-(1-methylpiperidin-4-yl)-1H-pyrazol-4-yl)pyridin-2-amine] |
| > 6.30 | > 6.30 | > 6.30 | Nc1ncc(-c2cnn(C3CCNCC3)c2)cc1-c1ncc(-c2cccc(Cl)c2)o1 [3-(5-(3-chlorophenyl)oxazol-2-yl)-5-(1-(piperidin-4-yl)-1H-pyrazol-4-yl)pyridin-2-amine] |
| 5.00 to 6.00 | 5.00 to 6.00 | 5.00 to 6.00 | Nc1ncc(-c2cnn(C3CCCCC3)c2)cc1-c1ncc(-c2cccc(Cl)c2)o1 [3-(5-(3-chlorophenyl)oxazol-2-yl)-5-(1-cyclohexyl-1H-pyrazol-4-yl)pyridin-2-amine] |
| > 6.30 | > 6.30 | > 6.30 | CC(C)(C)c1ccc(-c2nnc(-c3cc(-c4cnn(C5CCNCC5)c4)cnc3N)o2)cc1 [3-(5-(4-(tert-butyl)phenyl)-1,3,4-oxadiazol-2-yl)-5-(1-(piperidin-4-yl)-1H-pyrazol-4-yl)pyridin-2-amine] |
| < 5.00 | 5.00 to 6.00 | < 5.00 | CC(C)(C)c1ccc(-c2nnc(-c3cc(-c4cn[nH]c4)cnc3N)o2)cc1 [3-(5-(4-(tert-butyl)phenyl)-1,3,4-oxadiazol-2-yl)-5-(1H-pyrazol-4-yl)pyridin-2-amine] |
| > 6.30 | > 6.30 | > 6.30 | CN1CCC(n2cc(-c3cnc(N)c(-c4ncc(-c5ccc(Cl)cc5)o4)c3)cn2)CC1 [3-(5-(4-chlorophenyl)oxazol-2-yl)-5-(1-(1-methylpiperidin-4-yl)-1H-pyrazol-4-yl)pyridin-2-amine] |
| > 6.30 | > 6.30 | > 6.30 | Nc1ncc(-c2cnn(C3CCNCC3)c2)cc1-c1ncc(-c2ccc(Cl)cc2)o1 [3-(5-(4-chlorophenyl)oxazol-2-yl)-5-(1-(piperidin-4-yl)-1H-pyrazol-4-yl)pyridin-2-amine] |
| < 5.00 | < 5.00 | < 5.00 | Nc1ncc(-c2cnn(C3CCCCC3)c2)cc1-c1ncc(-c2ccc(Cl)cc2)o1 [3-(5-(4-chlorophenyl)oxazol-2-yl)-5-(1-cyclohexyl-1H-pyrazol-4-yl)pyridin-2-amine] |
| > 6.30 | > 6.30 | > 6.30 | Nc1ncc(-c2cnn(C3CCNCC3)c2)cc1-c1nnc(-c2ccc(F)cc2)o1 [3-(5-(4-fluorophenyl)-1,3,4-oxadiazol-2-yl)-5-(1-(piperidin-4-yl)-1H-pyrazol-4-yl)pyridin-2-amine] |
| > 6.30 | > 6.30 | 6.00 to 6.30 | Nc1ncc(-c2cn[nH]c2)cc1-c1nnc(-c2ccc(F)cc2)o1 [3-(5-(4-fluorophenyl)-1,3,4-oxadiazol-2-yl)-5-(1H-pyrazol-4-yl)pyridin-2-amine] |
| > 6.30 | > 6.30 | > 6.30 | Nc1ncc(-c2cnn(C3CCNCC3)c2)cc1-c1nnc(CC2CC2)o1 [3-(5-(cyclopropylmethyl)-1,3,4-oxadiazol-2-yl)-5-(1-(piperidin-4-yl)-1H-pyrazol-4-yl)pyridin-2-amine] |
| > 6.30 | > 6.30 | > 6.30 | Nc1ncc(-c2cnn(C3CCNCC3)c2)cc1-c1nnc(Cc2ccccc2)o1 [3-(5-benzyl-1,3,4-oxadiazol-2-yl)-5-(1-(piperidin-4-yl)-1H-pyrazol-4-yl)pyridin-2-amine] |
| > 6.30 | > 6.30 | > 6.30 | Nc1ncc(-c2cnn(C3CCNCC3)c2)cc1-c1noc(-c2ccccc2)n1 [3-(5-phenyl-1,2,4-oxadiazol-3-yl)-5-(1-(piperidin-4-yl)-1H-pyrazol-4-yl)pyridin-2-amine] |
| 6.00 to 6.30 | > 6.30 | 5.00 to 6.00 | Nc1ncc(-c2cnn(C3CCOCC3)c2)cc1-c1noc(-c2ccccc2)n1 [3-(5-phenyl-1,2,4-oxadiazol-3-yl)-5-(1-(tetrahydro-2H-pyran-4-yl)-1H-pyrazol-4-yl)pyridin-2-amine] |
| > 6.30 | > 6.30 | 5.00 to 6.00 | Nc1ncc(-c2cn[nH]c2)cc1-c1noc(-c2ccccc2)n1 [3-(5-phenyl-1,2,4-oxadiazol-3-yl)-5-(1H-pyrazol-4-yl)pyridin-2-amine] |
| > 6.30 | > 6.30 | > 6.30 | Nc1ncc(-c2cnn(C3CCNCC3)c2)cc1-c1nnc(-c2ccccc2)o1 [3-(5-phenyl-1,3,4-oxadiazol-2-yl)-5-(1-(piperidin-4-yl)-1H-pyrazol-4-yl)pyridin-2-amine] |
| > 6.30 | > 6.30 | > 6.30 | Nc1ncc(-c2cnn(C3CCOCC3)c2)cc1-c1nnc(-c2ccccc2)o1 [3-(5-phenyl-1,3,4-oxadiazol-2-yl)-5-(1-(tetrahydro-2H-pyran-4-yl)-1H-pyrazol-4-yl)pyridin-2-amine] |
| > 6.30 | > 6.30 | 6.00 to 6.30 | Nc1ncc(-c2cn[nH]c2)cc1-c1nnc(-c2ccccc2)o1 [3-(5-phenyl-1,3,4-oxadiazol-2-yl)-5-(1H-pyrazol-4-yl)pyridin-2-amine] |
| > 6.30 | > 6.30 | 6.00 to 6.30 | Nc1ncc(-c2cnn(C3CCNCC3)c2)cc1-c1ccc(-c2ccccc2)o1 [3-(5-phenylfuran-2-yl)-5-(1-(piperidin-4-yl)-1H-pyrazol-4-yl)pyridin-2-amine] |
